Source: the NIST ThermoML archive (doi:10.1016/j.jct.2018.12.031)

Legend:
[1] = xn = mol fraction of the nth substance listed; conditions: 100 kPa, Liquid; for speed of sound: Frequency=3 MHz, Linear variable-path acoustic interferometer; for mass density: Pycnometric method
[2] = 100 kPa, Liquid, Frequency=3 MHz, Linear variable-path acoustic interferometer

N#Cc1ccccc1 [benzonitrile] + C=C(C)C(=O)OCC
[1], x1 = 1
Conditions | mass density [kg/m3] | speed of sound [m/s]
293.15 K | 1003.99 | 1436.9
298.15 K | 1000.32 | 1418.2
303.15 K | 996.65 | 1400.7
308.15 K | 992.98 | 1384
313.15 K | 989.31 | 1368.2
318.15 K | 985.64 | 1352.9

N#Cc1ccccc1 [benzonitrile] + C=C(C)C(=O)OCCCC
[1], x1 = 1
Conditions | mass density [kg/m3] | speed of sound [m/s]
293.15 K | 1003.99 | 1436.9
298.15 K | 1000.32 | 1418.2
303.15 K | 996.65 | 1400.7
308.15 K | 992.98 | 1384
313.15 K | 989.31 | 1368.2
318.15 K | 985.64 | 1352.9

N#Cc1ccccc1 [benzonitrile]
[2]
Conditions | speed of sound [m/s]
293.15 K | 1436.9
298.15 K | 1418.2
303.15 K | 1400.7
308.15 K | 1384
313.15 K | 1368.2
318.15 K | 1352.9

C=C(C)C(=O)OC [methyl methacrylate] + N#Cc1ccccc1
[1], x2 = 0
Conditions | mass density [kg/m3] | speed of sound [m/s]
293.15 K | 943.38 | 1200.5
298.15 K | 937.64 | 1183.6
303.15 K | 931.9 | 1168.5
308.15 K | 926.16 | 1152.6
313.15 K | 920.42 | 1135.4
318.15 K | 914.67 | 1118.3
